Literature values, collected in patent US20160244831A9, “Genetic Alterations Associated with Autism and the Autistic Phenotype and Methods of Use Thereof for the Diagnosis and Treatment of Autism” (The Children's Hospital of Philadelphia, priority 2011, published 2016).

Experiments:
[1] = individuals exposed between days 24-28 post-fertilization
[2] = at levels that are highly teratogenic in humans

Row | SMILES | rate of ASD [1] [%] | expression of RANBP1 mRNA (RANBP1 mRNA) | teratogenicity in animals [2]
1 | O=C1CCC(N2C(=O)c3ccccc3C2=O)C(=O)N1 (stereo not shown) [Thalidomide] | 27 | decreased expression | lack of teratogenicity
2 | CCCC(CCC)C(=O)O [Valproate, Valproic acid] | – | decreased expression | –
